Measured values taken from patent publication US12109215B2, “Combination therapies for inhibition of polo-like kinase 4” (UNIVERSITY HEALTH NETWORK, priority 2017, dated 2024).

Key:
[1] = system: CT26 tumor; test: Established CT26 tumor treatment in BALB/cJ mice (tumor volume, regression); type: in vivo
Description: (§1) BALB/cJ mice were inoculated subcutaneously with 1×10^6 CT26 cells, and C57BL/6 mice were inoculated subcutaneously with 0.5×10^6 MC38 cells. The mice were then randomized. Animal weights were monitored daily, and tumor volume was measured three times per week.
(§2) […] was defined as 100×[1−TVf,treated−TVi,treated)/(TVf,control−TVi,control)], where TVf is the average tumor volume at the end of study and TVi is the average tumor volume at the end initiation of treatment. In cases in which tumor regression occurred, percentage of tumor regression was defined as 100×[1−(TVf,treated/TVi,treated)]. At the completion of each study, the mice were killed by an anesthetic overdose, and tumor tissue was removed for further analysis.
(§3) Treatments were initiated when tumor volumes reached an average size of ˜60 mm^3. To treat an established CT26 or MC38 tumor, the animals were first assigned into groups, i.e., the control group receiving rat IgG2a isotype control, the group receiving the compound CFI-400945 monotherapy, the group receiving the rat IgG2a anti-PD-1 antibody monotherapy and the group receiving the combination therapy.
The compound CFI-400945 and the vehicle (water) were administered by oral gavage (PO), at one of the following dosages: (i) 6.5 mg/kg once daily (QD) for 21 days; (ii) 13 mg/kg twice a week (BIW or 2 on/5 off) for 21 days; (iii) 52 mg/kg once weekly (QW) for 21 days; and (iv) 104 mg/kg in two doses, i.e., on Days 0 and 14.
(§4) The anti-PD-1 antibody or the isotype control were administered by intraperitoneal (IP) injection. 150 μg anti-PD-1 antibody was administered in four doses, i.e., on Days 0, 3, 6 and 10.

[2] = Tolerability in the CT26 tumor study (body weight, animal death); type: in vivo
Description: as §1, §4

[3] = system: CT26 cells; test: Re-challenge by inoculation with CT26 cells on Day 36 of animals with complete regression; type: in vivo, BALB/cJ mice
Description: Further to the tumor volume measurements, the animals in which complete regression had occurred as described above, either by CFI-400945 monotherapy or by IgG2a anti-PD-1 antibody-CFI-400945 combination therapy, were re-challenged by inoculation with CT26 cells on Day 36, as shown in FIGS. 1D (6.5 mg/kg QD CFI-400945+anti-PD-1 antibody), 1E (13 mg/kg BIW CFI-400945), 1F (13 mg/kg BIW CFI-400945+anti-PD-1 antibody), 1G (52 mg/kg QW CFI-400945), 1H (52 mg/kg QW CFI-400945+anti-PD-1 antibody) and 1J (104 mg/kg CFI-400945 on Days 0 and 14+anti-PD-1 antibody).

[4] = system: MC38 tumor; test: Established MC38 tumor treatment in C57BL/6 mice (tumor volume, regression); type: in vivo; conditions: first batch of MC38 experiments; CFI-400945 6.5 mg/kg once daily for 21 days, alone (FIG. 2C) or with anti-PD-1 antibody 150 μg Days 0, 3, 6, 10 (FIG. 2D)
Description: as §1, §2
as §3, with “therapy. […]” for “therapy.”

[5] = CFI-400945 104 mg/kg PO on Days 0 and 14

COc1ccc2c(c1)[C@]1(C[C@H]1c1ccc3c(/C=C/c4ccc(CN5C[C@@H](C)O[C@@H](C)C5)cc4)n[nH]c3c1)C(=O)N2 [CFI-400945]
complete regression of CT26 tumors ([1]; CFI-400945 6.5 mg/kg PO once daily for 21 days, alone (FIG. 1C) or with anti-PD-1 antibody 150 μg IP Days 0, 3, 6, 10 (FIG. 1D)): no instances in which complete regression was observed | CT26 tumor growth ([1]; CFI-400945 6.5 mg/kg PO once daily for 21 days, single agent (FIG. 1C)): tumor growth delay | CT26 tumors with regression ([1]; CFI-400945 13 mg/kg PO twice a week for 21 days, alone (FIG. 1E) or with anti-PD-1 antibody 150 μg IP Days 0, 3, 6, 10 (FIG. 1F)): one of the eight | CT26 tumors with regression ([1]; CFI-400945 52 mg/kg PO once weekly for 21 days, alone (FIG. 1G) or with anti-PD-1 antibody 150 μg IP Days 0, 3, 6, 10 (FIG. 1H)): one of the eight | tolerability of dosage ([2]; CFI-400945 6.5 mg/kg PO daily for 21 days): well-tolerated | body weight loss or animal death ([2]; CFI-400945 6.5 mg/kg PO daily for 21 days, data not shown): lack of any significant body weight loss (data not shown) or any animal death | tolerability of dosage ([2]; CFI-400945 13 mg/kg PO twice a week for 21 days): well-tolerated | tolerability of dosage ([2]; CFI-400945 52 mg/kg PO once weekly for 21 days): well-tolerated | animals found dead [2, 5]: two | tolerability of dosage [2, 5]: not be well-tolerated | tumor growth after re-challenge with CT26 cells on Day 36 ([3]; animals with complete regression after CFI-400945 13 mg/kg BIW, alone (FIG. 1E) or + anti-PD-1 antibody (FIG. 1F)): tumors did not grow in any mouse | tumor growth after re-challenge with CT26 cells on Day 36 ([3]; animals with complete regression after CFI-400945 52 mg/kg QW, alone (FIG. 1G) or + anti-PD-1 antibody (FIG. 1H)): tumors did not grow in any mouse | regression of MC38 tumors [4]: Regression was also observed
